What was measured:
[1] = target: ErbB2 insYVMA (HER2-YVMA, SEQ ID NO: 2) (Homo sapiens, UniProt P04626, INS775YVMA/P1170A); assay: biochemical; conditions: ErbB2 insYVMA enzyme assay; read-out: Assay 1 IC50
EGFR = EGFR (Homo sapiens (Human), UniProt P00533); assay: ErbB enzyme assay (CisBio HTRF KinEASE-TK), Assay 3; type: biochemical
In short: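 Kinase + 250 nM biotin TK-substrate, 1 mM ATP, cpd (3-fold dil.), HEPES pH 7.4/10 mM MgCl2/0.01% Triton/2% DMSO; 30 min 22 °C. Quench w/ Sa-XL665 + TK-Ab-Cryptate, 1 h, HTRF. IC50 = 50 POC on 4PL fit.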

MDR1 (P-gp) = MDR1 (P-gp) (Homo sapiens (Human), UniProt P08183); assay: MDR1 transfected LLC-PK1 permeability/efflux, Assay 6; conditions: pig, LLC-PK1, Assay 6 Pe Ratio, efflux ratio Papp(B-A)/Papp(A-B), MDR1 transfected LLC-PK1
Sequence of MDR1 (P-gp) (P08183 whole entry): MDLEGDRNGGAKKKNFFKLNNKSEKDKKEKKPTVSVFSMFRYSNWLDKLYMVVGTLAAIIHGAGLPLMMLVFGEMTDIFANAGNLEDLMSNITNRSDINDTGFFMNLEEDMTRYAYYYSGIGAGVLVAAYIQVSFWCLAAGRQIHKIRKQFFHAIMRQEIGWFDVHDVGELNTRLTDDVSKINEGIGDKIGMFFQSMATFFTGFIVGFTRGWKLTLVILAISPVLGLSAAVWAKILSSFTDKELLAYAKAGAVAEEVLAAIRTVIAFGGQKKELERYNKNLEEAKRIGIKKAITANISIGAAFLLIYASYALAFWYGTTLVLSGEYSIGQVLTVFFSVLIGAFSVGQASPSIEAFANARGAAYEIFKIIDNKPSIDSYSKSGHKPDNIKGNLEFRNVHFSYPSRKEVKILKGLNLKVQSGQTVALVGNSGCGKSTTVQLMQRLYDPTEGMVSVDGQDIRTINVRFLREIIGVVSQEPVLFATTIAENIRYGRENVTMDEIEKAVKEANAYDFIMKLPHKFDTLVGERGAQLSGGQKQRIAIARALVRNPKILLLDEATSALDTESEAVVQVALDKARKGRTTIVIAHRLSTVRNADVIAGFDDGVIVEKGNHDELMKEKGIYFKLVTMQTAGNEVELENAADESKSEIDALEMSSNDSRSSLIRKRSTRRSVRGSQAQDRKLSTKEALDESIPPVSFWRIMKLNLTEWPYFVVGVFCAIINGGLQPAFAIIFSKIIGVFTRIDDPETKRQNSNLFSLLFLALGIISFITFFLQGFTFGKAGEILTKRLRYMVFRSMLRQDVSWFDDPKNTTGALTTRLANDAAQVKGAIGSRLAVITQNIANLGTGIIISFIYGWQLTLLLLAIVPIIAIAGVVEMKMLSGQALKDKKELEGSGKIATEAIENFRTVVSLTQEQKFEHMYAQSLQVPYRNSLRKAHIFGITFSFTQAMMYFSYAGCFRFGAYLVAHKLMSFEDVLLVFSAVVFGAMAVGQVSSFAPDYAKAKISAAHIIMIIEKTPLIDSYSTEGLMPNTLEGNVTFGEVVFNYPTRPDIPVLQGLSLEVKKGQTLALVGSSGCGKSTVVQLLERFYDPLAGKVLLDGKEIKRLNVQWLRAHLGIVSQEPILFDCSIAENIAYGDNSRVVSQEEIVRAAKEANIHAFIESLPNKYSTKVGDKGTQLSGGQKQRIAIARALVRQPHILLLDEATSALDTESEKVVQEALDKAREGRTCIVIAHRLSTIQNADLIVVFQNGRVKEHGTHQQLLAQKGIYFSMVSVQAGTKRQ
Protocol: Both MDR1 transfected LLC-PK1 (Assay 6) and MDR1 transfected MDCKII canine Mdr1 knockout cells (Assay 7) were cultured and plated according to manufacturer's recommendations with the exception that the passage media for the MDR1 transfected LLC-PK1 cell line contained only 2% fetal bovine serum so as to extend passage time out to seven days.
Both positive and negative controls were used to assess functionality of P-gp or BCRP efflux in the assays. Stock solutions for assay controls and the test article were prepared in DMSO for final test concentration of 1 μM. Final organic concentration in the assay was 1%. All dosing solutions contained 10 μM lucifer yellow to monitor MDCKII cell monolayer integrity.
For the apical to basolateral determination (A to B), 75 μL of the test article in transport buffer were added to the apical side of the individual transwells and 250 μL of basolateral media, without compound or lucifer yellow, were added to each well. For the basolateral to apical determination (B to A), 250 μL of test article in transport buffer were added to each well and 75 μL transport buffer, without compound or lucifer yellow, were added to each transwell. All tests were performed in triplicate, and each compound was tested for both apical to basolateral and basolateral to apical transport. The plates were incubated for 2 hours on a Lab-Line Instruments Titer Orbital Shaker (VWR, West Chester, PA) at 50 rpm and 37° C. with 5% CO2. All culture plates were removed from the incubator, 50 μL of media were removed from the apical and basolateral portion of each well, and added to 150 μL of 1 μM labetalol in 2:1 acetonitrile (ACN): H2O, v/v.
The plates were read using a Molecular Devices (Sunnyvale, CA) Gemini Fluorometer to evaluate the lucifer yellow concentrations at excitation/emission wavelengths of 425/535 nm. These values were accepted when found to be below 2% for apical to basolateral and 5% basolateral to apical flux across the MDR1-transfected LLC-PK1 or BCRP-transfected MDCKII cell monolayers. The plates were sealed, and the contents of each well analyzed by LC MS/MS. The compound concentrations were determined from the ratio of the peak areas of the compound to the internal standard (labetalol) in comparison to the dosing solution.
A MDS Sciex API 4000 (Applied Biosystems, Foster City, CA) mass spectrometer was used for detection of the analytes in the ion spray positive mode. Analyte responses were measured by multiple reaction monitoring (“MRM”) of transitions unique to each compound (the protonated precursor ion and selected product ions for each test article and m/z 329 to m/z 162 for labetalol, the internal standard.
The total run time, including re-equilibration, for a single injection was 1.2 minutes. […] The total run time, including re-equilibration, for a single injection was 0.61 minutes.
An efflux ratio is calculated from the mean apical to basolateral (A-B) Papp data and basolateral to apical (B-A) Papp data: Efflux ratio=Papp(B−A)/Papp(A−B)

ErbB2 WT = ErbB2 WT (Homo sapiens (Human), UniProt P04626); assay: ErbB enzyme assay (CisBio HTRF KinEASE-TK), Assay 2; type: biochemical
Sequence of ErbB2 WT (P04626 23-1255): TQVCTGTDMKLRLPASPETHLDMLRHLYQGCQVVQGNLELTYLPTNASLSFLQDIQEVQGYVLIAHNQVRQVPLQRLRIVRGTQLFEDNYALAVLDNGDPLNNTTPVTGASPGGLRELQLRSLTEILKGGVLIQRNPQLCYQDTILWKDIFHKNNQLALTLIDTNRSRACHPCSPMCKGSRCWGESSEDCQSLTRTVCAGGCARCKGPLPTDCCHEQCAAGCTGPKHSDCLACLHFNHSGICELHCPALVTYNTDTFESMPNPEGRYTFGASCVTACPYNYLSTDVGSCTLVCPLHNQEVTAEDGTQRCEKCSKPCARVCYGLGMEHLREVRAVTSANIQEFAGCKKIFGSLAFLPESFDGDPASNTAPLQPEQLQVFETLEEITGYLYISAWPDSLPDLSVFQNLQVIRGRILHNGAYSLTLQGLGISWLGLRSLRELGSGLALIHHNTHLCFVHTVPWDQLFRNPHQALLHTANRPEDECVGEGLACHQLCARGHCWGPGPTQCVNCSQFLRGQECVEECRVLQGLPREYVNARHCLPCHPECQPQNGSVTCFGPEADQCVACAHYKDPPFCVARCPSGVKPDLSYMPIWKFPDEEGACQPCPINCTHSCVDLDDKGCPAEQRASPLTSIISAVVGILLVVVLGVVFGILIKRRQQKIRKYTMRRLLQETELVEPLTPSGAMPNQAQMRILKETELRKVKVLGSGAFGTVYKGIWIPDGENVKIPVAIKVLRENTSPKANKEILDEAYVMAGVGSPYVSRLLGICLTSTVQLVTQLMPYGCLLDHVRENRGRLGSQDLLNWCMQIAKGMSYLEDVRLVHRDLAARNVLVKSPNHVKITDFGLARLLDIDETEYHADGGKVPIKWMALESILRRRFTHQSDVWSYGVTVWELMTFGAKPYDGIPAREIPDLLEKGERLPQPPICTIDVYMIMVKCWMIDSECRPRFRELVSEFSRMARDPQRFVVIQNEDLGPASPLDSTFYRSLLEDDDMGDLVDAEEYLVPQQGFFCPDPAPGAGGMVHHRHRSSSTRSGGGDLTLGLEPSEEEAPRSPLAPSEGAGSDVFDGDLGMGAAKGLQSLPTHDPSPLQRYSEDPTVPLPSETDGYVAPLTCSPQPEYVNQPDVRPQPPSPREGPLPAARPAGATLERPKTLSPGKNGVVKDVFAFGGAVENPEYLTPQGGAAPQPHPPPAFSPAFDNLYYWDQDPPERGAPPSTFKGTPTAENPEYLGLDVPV
In short: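 ErbB2 phosphorylates 250 nM biotin-TK substrate at 1 mM ATP in 25 mM HEPES pH 7.4, 10 mM MgCl2, 0.01% Triton X-100 and 2% DMSO, for 30 min at 22 °C. Product is detected by HTRF with Sa-XL665 and TK-Ab-Cryptate. Percent of control is set by DMSO-only wells and pre-quenched wells.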

EGFR wild type (EGFR WT) = EGFR wild type (EGFR WT) (Homo sapiens (Human), UniProt P00533); assay: Cellular phosphorylation assay, EGF-stimulated EGFR phosphorylation in engineered NIH 3T3 cells, Phospho-EGFR DuoSet IC ELISA, Assay 5; type: cell-based
Sequence of EGFR wild type (EGFR WT) (P00533 25-1210): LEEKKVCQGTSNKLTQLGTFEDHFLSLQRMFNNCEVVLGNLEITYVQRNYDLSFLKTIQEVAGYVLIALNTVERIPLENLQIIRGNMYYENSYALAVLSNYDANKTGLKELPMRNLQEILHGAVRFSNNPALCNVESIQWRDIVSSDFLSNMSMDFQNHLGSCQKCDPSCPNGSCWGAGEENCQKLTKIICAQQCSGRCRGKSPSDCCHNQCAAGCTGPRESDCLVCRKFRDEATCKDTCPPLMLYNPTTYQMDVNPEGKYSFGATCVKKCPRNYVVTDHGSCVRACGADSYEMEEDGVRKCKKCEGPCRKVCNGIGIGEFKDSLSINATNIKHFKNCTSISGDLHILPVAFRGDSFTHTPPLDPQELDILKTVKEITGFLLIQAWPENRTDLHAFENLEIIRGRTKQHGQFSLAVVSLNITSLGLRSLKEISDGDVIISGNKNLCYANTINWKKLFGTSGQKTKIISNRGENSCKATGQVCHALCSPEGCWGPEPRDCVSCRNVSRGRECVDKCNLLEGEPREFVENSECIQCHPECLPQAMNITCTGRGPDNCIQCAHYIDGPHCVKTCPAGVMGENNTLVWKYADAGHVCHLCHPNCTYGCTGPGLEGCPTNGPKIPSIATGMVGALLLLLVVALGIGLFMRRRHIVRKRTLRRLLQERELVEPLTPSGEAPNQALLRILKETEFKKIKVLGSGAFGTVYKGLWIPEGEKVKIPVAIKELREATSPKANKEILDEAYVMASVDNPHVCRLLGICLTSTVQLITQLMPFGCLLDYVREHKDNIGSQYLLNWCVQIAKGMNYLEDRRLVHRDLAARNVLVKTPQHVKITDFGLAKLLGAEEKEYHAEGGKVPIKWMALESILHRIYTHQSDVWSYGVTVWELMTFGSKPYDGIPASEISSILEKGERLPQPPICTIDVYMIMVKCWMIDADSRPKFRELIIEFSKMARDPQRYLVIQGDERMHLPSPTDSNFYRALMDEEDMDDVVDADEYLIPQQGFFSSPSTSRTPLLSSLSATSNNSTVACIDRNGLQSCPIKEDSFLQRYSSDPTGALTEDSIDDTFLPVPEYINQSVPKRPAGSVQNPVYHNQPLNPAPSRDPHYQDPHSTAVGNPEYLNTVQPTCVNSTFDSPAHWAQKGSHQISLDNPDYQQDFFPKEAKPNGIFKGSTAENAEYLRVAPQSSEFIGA
In short: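 NIH 3T3 cells expressing EGFR WT (20,000/well, attached overnight) were exposed to serially diluted compound for 1 h at 37 °C, then stimulated with 100 ng/ml rEGF for 10 min. Phospho-EGFR in lysates measured by sandwich ELISA optical density; IC50 from curves.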

[2] = target: ErbB2 with Exon 20 YVMA insertion (HER2-YVMA) (Homo sapiens (Human), UniProt P04626, INS775YVMA); assay: Cellular phosphorylation assay, constitutive ErbB2 phosphorylation (Y1196) in engineered NIH 3T3 cells, Assay 4; type: cell-based
In short: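 Engineered NIH 3T3 cells expressing HER2-YVMA treated with compounds 1 h at 37 °C, then formaldehyde-fixed and methanol-permeabilized. pErbB2 Y1196 detected by in-cell infrared immunofluorescence, normalized to GAPDH. IC50 from the normalized curves.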

Sequence of EGFR (P00533 25-1210): as above

SMILES: Cc1cc(Nc2ncnc3cnc(N4CCOC5CC54)nc23)ccc1Oc1ccc2c(c1)ncn2C (racemic) [Example 60, 6-(2-oxa-5-azabicyclo[4.1.0]heptan-5-yl)-N-(3-methyl-4-((1-methyl-1H-benzo[d]imidazol-5-yl)oxy)phenyl)pyrimido[5,4-d]pyrimidin-4-amine]
- IC50 [1]: 19.4 nM
- IC50 (EGFR): 8860 nM
- efflux ratio at 2 h, 1 μM (MDR1 (P-gp)): 2.6
- IC50 (ErbB2 WT): 27.6 nM
- IC50 (EGFR wild type (EGFR WT)): ≥ 5000 nM
- IC50 [2]: 8.5 nM

SMILES: Cc1cc(Nc2ncnc3cnc(N[C@H]4CCOC4)nc23)ccc1Oc1ccc2c(c1)ncn2C [Example 17, (S)—N8-(3-methyl-4-((1-methyl-1H-benzo[d]imidazol-5-yl)oxy)phenyl)-N2-(tetrahydrofuran-3-yl)pyrimido[5,4-d]pyrimidine-2,8-diamine]
- IC50 [1]: 7 nM
- IC50 (EGFR): 2350 nM
- efflux ratio at 2 h, 1 μM (MDR1 (P-gp)): 6.6
- IC50 (ErbB2 WT): 6 nM
- IC50 (EGFR wild type (EGFR WT)): ≥ 5000 nM
- IC50 [2]: 9.2 nM

SMILES: Cc1cc(Nc2ncnc3cnc(NC45CC(C4)C5)nc23)ccc1Oc1ccc2c(c1)ncn2C [Example 18, N2-(bicyclo[1.1.1]pentan-1-yl)-N8-(3-methyl-4-((1-methyl-1H-benzo[d]imidazol-5-yl)oxy)phenyl)pyrimido[5,4-d]pyrimidine-2,8-diamine]
- IC50 [1]: 122 nM
- IC50 (EGFR): ≥ 10000 nM
- efflux ratio at 2 h, 1 μM (MDR1 (P-gp)): 2.6
- IC50 (ErbB2 WT): 167 nM
- IC50 (EGFR wild type (EGFR WT)): ≥ 5000 nM
- IC50 [2]: 47.8 nM

SMILES: CC(=O)N1CCN(c2ncc3ncnc(Nc4ccc(Oc5ccc6c(c5)ncn6C)c(C)c4)c3n2)CC1 [Example 24, 1-(4-(8-((3-methyl-4-((1-methyl-1H-benzo[d]imidazol-5-yl)oxy)phenyl)amino)pyrimido[5,4-d]pyrimidin-2-yl)piperazin-1-yl)ethan-1-one]
- IC50 [1]: 18.2 nM
- IC50 (EGFR): ≥ 10000 nM
- efflux ratio at 2 h, 1 μM (MDR1 (P-gp)): 30
- IC50 (ErbB2 WT): 31.5 nM
- IC50 (EGFR wild type (EGFR WT)): ≥ 5000 nM
- IC50 [2]: 7.1 nM

SMILES: Cc1cc(Nc2ncnc3cnc(N4CCN(C)C4=O)nc23)ccc1Oc1ccc2c(c1)ncn2C [Example 28, 1-methyl-3-(8-((3-methyl-4-((1-methyl-1H-benzo[d]imidazol-5-yl)oxy)phenyl)amino)pyrimido[5,4-d]pyrimidin-2-yl)imidazolidin-2-one]
- IC50 [1]: 68.7 nM
- IC50 (EGFR): ≥ 10000 nM
- efflux ratio at 2 h, 1 μM (MDR1 (P-gp)): 13.3
- IC50 (ErbB2 WT): 163 nM
- IC50 (EGFR wild type (EGFR WT)): ≥ 5000 nM
- IC50 [2]: 24.8 nM

SMILES: Cc1cc(Nc2ncnc3cnc(NC4=NC(C)(C)CO4)nc23)ccc1Oc1ccc2c(c1)ncn2C [Example 32, N2-(4,4-dimethyl-4,5-dihydrooxazol-2-yl)-N8-(3-methyl-4-((1-methyl-1H-benzo[d]imidazol-5-yl)oxy)phenyl)pyrimido[5,4-d]pyrimidine-2,8-diamine]
- IC50 [1]: 34.6 nM
- IC50 (EGFR): ≥ 10000 nM
- efflux ratio at 2 h, 1 μM (MDR1 (P-gp)): 34.5
- IC50 (ErbB2 WT): 43.4 nM
- IC50 (EGFR wild type (EGFR WT)): ≥ 5000 nM
- IC50 [2]: 13.4 nM

SMILES: Cc1cc(Nc2ncnc3cnc(N4CCCC4=O)nc23)ccc1Oc1ccc2c(c1)ncn2C [Example 34, 1-(8-((3-methyl-4-((1-methyl-1H-benzo[d]imidazol-5-yl)oxy)phenyl)amino)pyrimido[5,4-d]pyrimidin-2-yl)pyrrolidin-2-one]
- IC50 [1]: 124 nM
- IC50 (EGFR): ≥ 10000 nM
- efflux ratio at 2 h, 1 μM (MDR1 (P-gp)): 6.3
- IC50 (ErbB2 WT): 307 nM
- IC50 (EGFR wild type (EGFR WT)): ≥ 5000 nM
- IC50 [2]: 30.5 nM

SMILES: CNc1ncc2ncnc(Nc3ccc(Oc4ccc5scnc5c4)c(C)c3)c2n1 [Example 50, N8-(4-(benzo[d]thiazol-5-yloxy)-3-methylphenyl)-N2-methylpyrimido[5,4-d]pyrimidine-2,8-diamine 2,2,2-trifluoroacetate]
- IC50 [1]: 4.8 nM
- IC50 (EGFR): 363 nM
- efflux ratio at 2 h, 1 μM (MDR1 (P-gp)): 1.2
- IC50 (ErbB2 WT): 11.4 nM
- IC50 (EGFR wild type (EGFR WT)): ≥ 5000 nM
- IC50 [2]: 93.6 nM

SMILES: Cc1cc(Nc2ncnc3cnc(N4C[C@H]5CCCN5C4=O)nc23)ccc1Oc1ccc2c(c1)ncn2C [Example 66, (R)-2-(8-((3-methyl-4-((1-methyl-1H-benzo[d]imidazol-5-yl)oxy)phenyl)amino)pyrimido[5,4-d]pyrimidin-2-yl)hexahydro-3H-pyrrolo[1,2-c]imidazol-3-one]
- IC50 [1]: 53.9 nM
- IC50 (EGFR): ≥ 10000 nM
- efflux ratio at 2 h, 1 μM (MDR1 (P-gp)): 11.6
- IC50 (ErbB2 WT): 180 nM
- IC50 (EGFR wild type (EGFR WT)): ≥ 5000 nM
- IC50 [2]: 41.4 nM

SMILES: Cc1cc(Nc2ncnc3cnc(N[C@@H]4CCNC[C@@H]4F)nc23)ccc1Oc1ccc2c(c1)ncn2C [Example 83, N2-((3S,4R)-3-fluoropiperidin-4-yl)-N8-(3-methyl-4-((1-methyl-1H-benzo[d]imidazol-5-yl)oxy)phenyl)pyrimido[5,4-d]pyrimidine-2,8-diamine]
- IC50 [1]: 12.4 nM
- IC50 (EGFR): 5650 nM
- efflux ratio at 2 h, 1 μM (MDR1 (P-gp)): 76
- IC50 (ErbB2 WT): 34.5 nM
- IC50 (EGFR wild type (EGFR WT)): ≥ 5000 nM
- IC50 [2]: 20.3 nM

SMILES: Cc1cc(Nc2ncnc3cnc(N[C@@H]4CCN(C)C[C@@H]4F)nc23)ccc1Oc1ccc2c(c1)ncn2C [Example 84, N2-((3S,4R)-3-fluoro-1-methylpiperidin-4-yl)-N8-(3-methyl-4-((1-methyl-1H-benzo[d]imidazol-5-yl)oxy)phenyl)pyrimido[5,4-d]pyrimidine-2,8-diamine]
- IC50 [1]: 14 nM
- IC50 (EGFR): 5380 nM
- efflux ratio at 2 h, 1 μM (MDR1 (P-gp)): 10.2
- IC50 (ErbB2 WT): 47.2 nM
- IC50 (EGFR wild type (EGFR WT)): ≥ 5000 nM
- IC50 [2]: 25.5 nM

SMILES: Cc1cc(Nc2ncnc3cnc(N4CC(C(C)(C)O)C4)nc23)ccc1Oc1ccc2c(c1)ncn2C [Example 118, 2-(1-(8-((3-methyl-4-((1-methyl-1H-benzo[d]imidazol-5-yl)oxy)phenyl)amino)pyrimido[5,4-d]pyrimidin-2-yl)azetidin-3-yl)propan-2-ol]
- IC50 [1]: 54.2 nM
- IC50 (EGFR): ≥ 10000 nM
- efflux ratio at 2 h, 1 μM (MDR1 (P-gp)): 7.4
- IC50 (ErbB2 WT): 88.7 nM
- IC50 (EGFR wild type (EGFR WT)): ≥ 5000 nM
- IC50 [2]: 39.8 nM

SMILES: Cc1cc(Nc2ncnc3cnc(N4CC[C@H](S(C)(=O)=O)C4)nc23)ccc1Oc1ccc2c(c1)ncn2C [Example 119, (S)—N-(3-methyl-4-((1-methyl-1H-benzo[d]imidazol-5-yl)oxy)phenyl)-6-(3-(methylsulfonyl)pyrrolidin-1-yl)pyrimido[5,4-d]pyrimidin-4-amine]
- IC50 [1]: 26.8 nM
- IC50 (EGFR): 9320 nM
- efflux ratio at 2 h, 1 μM (MDR1 (P-gp)): 29.6
- IC50 (ErbB2 WT): 30.7 nM
- IC50 (EGFR wild type (EGFR WT)): ≥ 5000 nM
- IC50 [2]: 24.7 nM

SMILES: Cc1cc(Nc2ncnc3cnc(N4CC[C@@H](S(C)(=O)=O)C4)nc23)ccc1Oc1ccc2c(c1)ncn2C [Example 125, (R)—N-(3-methyl-4-((1-methyl-1H-benzo[d]imidazol-5-yl)oxy)phenyl)-6-(3-(methylsulfonyl)pyrrolidin-1-yl)pyrimido[5,4-d]pyrimidin-4-amine]
- IC50 [1]: 24.8 nM
- IC50 (EGFR): ≥ 10000 nM
- efflux ratio at 2 h, 1 μM (MDR1 (P-gp)): 36.1
- IC50 (ErbB2 WT): 55.6 nM
- IC50 (EGFR wild type (EGFR WT)): ≥ 5000 nM
- IC50 [2]: 32.4 nM

SMILES: Cc1cc(Nc2ncnc3cnc(NOCC(C)(C)O)nc23)ccc1Oc1ccc2c(c1)ncn2C [Example 217, 2-methyl-1-(((8-((3-methyl-4-((1-methyl-1H-benzo[d]imidazol-5-yl)oxy)phenyl)amino)pyrimido[5,4-d]pyrimidin-2-yl)amino)oxy)propan-2-ol]
- IC50 [1]: 23.2 nM
- efflux ratio at 2 h, 1 μM (MDR1 (P-gp)): 6
- IC50 (ErbB2 WT): 53.3 nM
- IC50 (EGFR wild type (EGFR WT)): ≥ 5000 nM
- IC50 [2]: 35.1 nM

— US11834453B2, “Substituted pyrimido[5,4-d]pyrimidines as HER2 inhibitors” (Array BioPharma Inc., priority 2020, dated 2023)
